# Measured values from the supplement of paper PMC10307832.
# Columns and labels:
# Experiment in all cases: relative viability (nuclei count vs DMSO), 5 days (fraction); higher = more cells survive
# [1] = compound: CC1=C(C(=NN1)C)CC2=C(C3=C(S2)N(C(=O)N(C3=O)C)CC(C)C)C(=O)N4C[C@@H](CO4)O + Nc1ncn([C@H]2C[C@H](O)[C@@H](CO)O2)c(=O)n1 [Decitabine] (partner 2 µM)
# Outline: (§1)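 Lung cancer cell lines in 1536-well plates were dosed by pin tool the day after seeding, either with one drug alone or with a fixed anchor-drug dose plus five library-drug doses (not always all listed) in √10 steps. After 5 days, cells were fixed and their nuclei stained in one step (final 0.05% Triton X-100, 1% formaldehyde, 1 ug/ml Hoechst), then counted on 4× images. Relative viability is the nuclei count in treated wells divided by that in vehicle wells. Values are medians of duplicate plates.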
# [2] = compound: CC1=C(C(=NN1)C)CC2=C(C3=C(S2)N(C(=O)N(C3=O)C)CC(C)C)C(=O)N4C[C@@H](CO4)O + C[C@@H](Oc1cc(-c2cnn(C3CCNCC3)c2)cnc1N)c1c(Cl)ccc(F)c1Cl [Crizotinib] (partner 1 µM)
# Outline: as §1
# [3] = compound: CC1=C(C(=NN1)C)CC2=C(C3=C(S2)N(C(=O)N(C3=O)C)CC(C)C)C(=O)N4C[C@@H](CO4)O + COc1cccc2cc(-c3nc([C@H]4CC[C@H](C(=O)O)CC4)n4ncnc(N)c34)[nH]c12 [OSI-027] (partner 0.5 µM)
# Outline: as §1
# IDH-C35 + OSI-027 = compound: Cc1ccccc1C(C(=O)NC1CCCCC1)N(C(=O)Cn1ccnc1C)c1cccc(F)c1 [IDH-C35] + COc1cccc2cc(-c3nc([C@H]4CC[C@H](C(=O)O)CC4)n4ncnc(N)c34)[nH]c12 [OSI-027] (partner 0.5 µM)
# Outline: as §1
Cell Line,relative viability ([1]; first compound 0.0025 µM),relative viability ([1]; first compound 0.007906 µM),relative viability ([1]; first compound 0.025 µM),relative viability ([1]; first compound 0.07906 µM),relative viability ([1]; first compound 0.25 µM),relative viability ([2]; first compound 0.0025 µM),relative viability ([2]; first compound 0.007906 µM),relative viability ([2]; first compound 0.025 µM),relative viability ([2]; first compound 0.07906 µM),relative viability ([2]; first compound 0.25 µM),relative viability ([3]; first compound 0.0025 µM),relative viability ([3]; first compound 0.007906 µM),relative viability ([3]; first compound 0.025 µM),relative viability ([3]; first compound 0.07906 µM),relative viability ([3]; first compound 0.25 µM),relative viability (IDH-C35 + OSI-027; first compound 0.08 µM),relative viability (IDH-C35 + OSI-027; first compound 0.253 µM),relative viability (IDH-C35 + OSI-027; first compound 0.8 µM),relative viability (IDH-C35 + OSI-027; first compound 2.53 µM),relative viability (IDH-C35 + OSI-027; first compound 8 µM)
NCI-H1792,0.483,0.489,0.408,0.451,0.517,1.04,0.976,0.901,0.855,0.786,0.739,0.816,0.717,0.645,0.652,0.725,0.718,0.705,0.742,0.75
SK-LU-1,0.524,0.475,0.448,0.561,0.618,0.654,0.6,0.653,0.693,0.643,0.311,0.227,0.217,0.246,0.229,0.377,0.336,0.347,0.357,0.326
ChaGo-K-1,0.506,0.509,0.508,0.536,0.553,1.13,0.876,–,1.09,1.25,0.613,0.592,0.602,0.555,0.563,0.604,0.523,0.529,0.637,0.572
NCI-H1650,0.365,0.424,0.388,0.292,0.309,1.05,1.08,0.973,1.04,1.06,0.788,0.657,0.755,0.817,0.631,0.667,0.593,0.637,0.659,0.571
NCI-H2009,0.412,0.408,0.342,0.418,0.407,0.966,1.03,1.06,1.09,1.11,0.742,0.701,0.616,0.706,0.695,0.654,0.643,0.685,0.668,0.569
LOU-NH91,0.83,0.798,0.839,0.864,0.823,0.735,0.733,0.797,0.741,0.732,0.719,0.714,0.715,0.84,0.727,0.742,0.76,0.743,0.716,0.732
NCI-H2405,0.686,0.746,0.752,0.738,0.739,0.91,0.805,0.727,0.748,0.805,0.703,0.645,–,0.62,0.661,0.651,0.651,0.622,0.567,0.621
LCLC-97TM1,0.265,0.237,0.219,0.242,0.224,0.448,0.436,0.371,0.361,0.692,0.665,0.515,0.513,0.548,0.564,0.557,0.614,0.508,0.447,0.421
NCI-H596,1.11,1.1,1.1,0.989,1.06,1.02,1.06,0.954,1.04,1.16,0.721,0.822,0.889,0.803,0.715,0.787,0.806,0.709,–,0.629
NCI-H727,0.807,0.915,0.862,0.943,0.969,0.697,0.65,0.882,0.838,0.754,0.731,0.504,0.505,0.586,0.708,0.805,0.474,0.464,0.588,0.592
H3255,0.567,0.446,0.568,0.651,0.641,0.924,0.902,0.817,0.816,0.926,0.609,0.565,0.62,0.604,0.602,0.554,0.534,0.581,0.661,0.647
SK-MES-1,0.428,0.384,0.394,0.381,0.449,1.13,0.995,1.08,0.944,0.966,0.664,0.68,0.634,0.66,0.694,0.634,0.598,0.604,0.597,0.508
NCI-H1437,0.532,0.59,0.519,0.612,0.548,0.967,0.928,0.875,0.949,1.09,0.894,0.892,0.867,0.93,0.857,0.876,0.907,0.842,0.828,0.756
LU99A,0.784,0.979,0.825,0.901,0.976,0.542,0.592,0.533,0.566,0.648,0.339,0.335,0.347,0.309,0.294,0.335,0.329,0.276,0.293,0.286
